Experiments:
Assay type in all cases: biochemical
[1] = biological target: T1, human Yes1 enzyme (Homo sapiens, UniProt P07947); assay: Yes1 enzyme inhibitory activity (time-resolved fluorometry, biotinylated peptide phosphorylation); details: read-out: YES_IC50
T1 construct: made in house
Method in brief: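 Inhibition was expressed against a compound-free control to give IC50, using TR-FRET read-out (Eu-cryptate anti-pTyr antibody, streptavidin-XL665).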

[2] = biological target: T2, human Src enzyme (Homo sapiens, UniProt P12931); assay: Src enzyme inhibitory activity (time-resolved fluorometry, biotinylated peptide phosphorylation); details: read-out: SRC_IC50
T2 construct: purchased Carna Biosciences, Inc. 08-173
T2 sequence (P12931 whole entry): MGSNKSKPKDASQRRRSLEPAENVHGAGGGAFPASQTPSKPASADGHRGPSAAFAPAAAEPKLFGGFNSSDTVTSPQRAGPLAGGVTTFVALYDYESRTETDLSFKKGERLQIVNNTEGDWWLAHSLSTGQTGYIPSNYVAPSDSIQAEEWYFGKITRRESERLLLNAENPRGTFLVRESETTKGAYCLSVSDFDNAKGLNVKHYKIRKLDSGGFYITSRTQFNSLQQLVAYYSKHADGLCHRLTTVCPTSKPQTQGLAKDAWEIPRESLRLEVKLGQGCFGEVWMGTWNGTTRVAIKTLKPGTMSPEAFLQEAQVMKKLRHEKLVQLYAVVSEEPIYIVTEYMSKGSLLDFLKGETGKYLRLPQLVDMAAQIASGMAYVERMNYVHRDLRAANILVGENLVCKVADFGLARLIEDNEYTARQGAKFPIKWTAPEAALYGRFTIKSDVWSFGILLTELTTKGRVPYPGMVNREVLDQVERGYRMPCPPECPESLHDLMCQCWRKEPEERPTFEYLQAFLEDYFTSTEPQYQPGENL
Method in brief: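 Compounds were tested for blocking tyrosine phosphorylation of a biotinylated peptide substrate by recombinant human Src. Phosphorylated product was quantified by time-resolved fluorometry using europium cryptate and XL665 conjugates, and IC50 was calculated against the compound-free control.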

[3] = biological target: T3, human Lck enzyme (Homo sapiens, UniProt P06239); assay: Lck enzyme inhibitory activity (time-resolved fluorometry, biotinylated peptide phosphorylation); details: read-out: LCK_IC50
T3 construct: purchased Carna Biosciences, Inc. 08-170
T3 sequence (P06239 whole entry): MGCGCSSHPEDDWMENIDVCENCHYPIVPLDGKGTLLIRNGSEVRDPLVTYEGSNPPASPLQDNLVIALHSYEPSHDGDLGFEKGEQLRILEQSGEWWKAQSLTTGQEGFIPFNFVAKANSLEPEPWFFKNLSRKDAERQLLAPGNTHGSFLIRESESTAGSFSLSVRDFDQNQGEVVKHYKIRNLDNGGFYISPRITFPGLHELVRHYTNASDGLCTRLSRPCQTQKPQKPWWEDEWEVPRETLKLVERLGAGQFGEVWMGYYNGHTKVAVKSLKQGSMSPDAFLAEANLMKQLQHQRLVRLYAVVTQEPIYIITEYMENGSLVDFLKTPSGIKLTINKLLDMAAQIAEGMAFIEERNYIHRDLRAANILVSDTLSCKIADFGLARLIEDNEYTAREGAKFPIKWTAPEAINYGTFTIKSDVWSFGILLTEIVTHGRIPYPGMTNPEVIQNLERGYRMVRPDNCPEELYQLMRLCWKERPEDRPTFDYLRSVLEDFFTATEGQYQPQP
Method in brief: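 Readout pairs a europium cryptate-labelled anti-phosphotyrosine antibody with XL665-streptavidin, measured by time-resolved fluorescence. IC50 derived from percent inhibition against untreated controls.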

T1 sequence (P07947 whole entry): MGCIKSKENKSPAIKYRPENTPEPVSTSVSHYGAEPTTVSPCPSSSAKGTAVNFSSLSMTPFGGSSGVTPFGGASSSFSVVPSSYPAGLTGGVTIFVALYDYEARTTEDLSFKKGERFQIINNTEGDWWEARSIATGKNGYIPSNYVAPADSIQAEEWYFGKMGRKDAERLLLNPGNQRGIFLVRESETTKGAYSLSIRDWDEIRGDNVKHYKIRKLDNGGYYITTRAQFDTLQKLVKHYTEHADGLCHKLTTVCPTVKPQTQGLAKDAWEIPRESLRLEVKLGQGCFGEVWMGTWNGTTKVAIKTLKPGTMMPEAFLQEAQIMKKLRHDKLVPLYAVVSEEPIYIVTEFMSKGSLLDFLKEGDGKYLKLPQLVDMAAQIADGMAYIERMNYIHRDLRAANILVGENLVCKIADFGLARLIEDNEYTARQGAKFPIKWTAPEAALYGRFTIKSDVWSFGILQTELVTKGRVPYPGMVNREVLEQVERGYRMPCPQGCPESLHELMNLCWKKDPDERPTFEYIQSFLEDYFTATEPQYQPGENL

SMILES | IC50 [1] [µM] | IC50 [2] [µM] | IC50 [3] [µM]
COC(=O)[C@H](Cc1cnc[nH]1)NC(=O)Nc1cc2[nH]c(C(=O)c3cnn(-c4ccc(Oc5ccccc5F)cc4C)c3N)cc2cc1OCC(F)F [Example 5-1-246, Methyl (2S)-2-[[2-[5-amino-1-[4-(2-fluorophenoxy)-2-methylphenyl]pyrazole-4-carbonyl]-5-(2,2-difluoroethoxy)-1H-indol-6-yl]carbamoylamino]-3-(1H-imidazol-5-yl) propanoate] | 0.0016 | 0.016 | 0.0071
Cc1cc(-n2ncc(C(=O)c3cc4cc(OC5CCN(C(C)C)CC5)c(C5CCOCC5)cc4[nH]3)c2N)ccc1Oc1ccccc1F [Example 5-1-247, (5-amino-1-(4-(2-fluorophenoxy)-3-methylphenyl)-1H-pyrazol-4-yl)(5-((1-isopropylpiperidin-4-yl)oxy)-6-(tetrahydro-2H-pyran-4-yl)-1H-indol-2-yl)methanone] | 0.0021 | 0.12 | 0.034
Cc1cc(Oc2c(F)cccc2F)ncc1-n1ncc(C(=O)c2cc3cc(OC4CCN(C(C)C)CC4)c(C4CCOCC4)cc3[nH]2)c1N [Example 5-1-248, [5-amino-1-[6-(2,6-difluorophenoxy)-4-methylpyridin-3-yl]pyrazol-4-yl]-[6-(oxan-4-yl)-5-(1-propan-2-ylpiperidin-4-yl)oxy-1H-indol-2-yl]methanone] | 0.00097 | 0.0079 | 0.0047
Cc1cc(Oc2c(F)cccc2F)ncc1-n1ncc(C(=O)c2cc3cc(OC4CCN(C(C)C)CC4)c(-c4cnn(C)c4)cc3[nH]2)c1N [Example 5-1-249, [5-amino-1-[6-(2,6-difluorophenoxy)-4-methylpyridin-3-yl]pyrazol-4-yl]-[6-(1-methylpyrazol-4-yl)-5-(1-propan-2-ylpiperidin-4-yl)oxy-1H-indol-2-yl]methanone] | 0.00077 | 0.0074 | 0.0037
Cc1cc(Oc2c(F)cccc2F)ncc1-n1ncc(C(=O)c2cc3cc(OCC(F)F)c(-c4cccs4)cc3[nH]2)c1N [Example 5-1-257, [5-amino-1-[6-(2,6-difluorophenoxy)-4-methylpyridin-3-yl]pyrazol-4-yl]-[5-(2,2-difluoroethoxy)-6-thiophen-2-yl-1H-indol-2-yl] methanone] | 0.04 | 0.25 | 0.095
Cc1cc(Oc2c(F)cccc2F)ncc1-n1ncc(C(=O)c2cc3cc(OCC(F)F)c(C4CCOCC4)cc3[nH]2)c1N [Example 5-1-259, [5-amino-1-[6-(2,6-difluorophenoxy)-4-methylpyridin-3-yl]pyrazol-4-yl]-[5-(2,2-difluoroethoxy)-6-(oxan-4-yl)-1H-indol-2-yl] methanone] | 0.0075 | 0.05 | 0.025
Cc1cc(Oc2ccccc2F)ccc1-n1ncc(C(=O)c2cc3cc(C(C)C)c(Br)cc3[nH]2)c1N [Example 5-1-260, [5-amino-1-[4-(2-fluorophenoxy)-2-methylphenyl]pyrazol-4-yl]-(6-bromo-5-propan-2-yl-1H-indol-2-yl)methanone] | 0.0085 | 0.061 | 0.044
Cc1cc(-n2ncc(C(=O)c3cc4cc(OCC(F)F)c(-c5cncnc5)cc4[nH]3)c2N)ccc1Oc1ccccc1F [Example 5-1-261, [5-amino-1-[4-(2-fluorophenoxy)-3-methylphenyl]pyrazol-4-yl]-[5-(2,2-difluoroethoxy)-6-pyrimidin-5-yl-1H-indol-2-yl]methanone] | 0.0079 | 0.39 | 0.2
Cc1cc(Oc2c(F)cccc2F)ncc1-n1ncc(C(=O)c2cc3cc(OCC(F)F)c(-c4cncnc4)cc3[nH]2)c1N [Example 5-1-262, [5-amino-1-[6-(2,6-difluorophenoxy)-4-methylpyridin-3-yl]pyrazol-4-yl]-[5-(2,2-difluoroethoxy)-6-pyrimidin-5-yl-1H-indol-2-yl]methanone] | 0.0023 | 0.0064 | 0.012
Cc1cc(-n2ncc(C(=O)c3cc4cc(OCC(F)F)c(-c5cnn(C)c5)cc4[nH]3)c2N)ccc1Oc1ccccc1F [Example 5-1-263, [5-amino-1-[4-(2-fluorophenoxy)-3-methylphenyl]pyrazol-4-yl]-[5-(2,2-difluoroethoxy)-6-(1-methylpyrazol-4-yl)-1H-indol-2-yl]methanone] | 0.019 | 2.6 | 0.71

Results, then the compound that gave them:

IC50 [1] [µM] | IC50 [2] [µM] | IC50 [3] [µM] | SMILES
0.00076 | 0.0075 | 0.0028 | Cc1cc(Oc2ccccc2F)ccc1-n1ncc(C(=O)c2cc3cc(OCC(F)F)c(N4C(=O)[C@@H]5C[C@@H](O)CN5C4=O)cc3[nH]2)c1N [Example 5-1-250]
0.0038 | 0.025 | 0.015 | Cc1cc(Oc2ccccc2F)ccc1-n1ncc(C(=O)c2cc3cc(OCC(F)F)c(N4C(=O)N[C@@H](Cc5ccc(O)cc5)C4=O)cc3[nH]2)c1N [Example 5-1-251, (5S)-3-[2-[5-amino-1-[4-(2-fluorophenoxy)-2-methylphenyl]pyrazole-4-carbonyl]-5-(2,2-difluoroethoxy)-1H-indol-6-yl]-5-[(4-hydroxyphenyl)methyl]imidazolidine-2,4-dione]
0.0012 | 0.014 | 0.0046 | Cc1cc(Oc2ccccc2F)ccc1-n1ncc(C(=O)c2cc3cc(OCC(F)F)c(N4C(=O)[C@@H]5CCCN5C4=O)cc3[nH]2)c1N [Example 5-1-252, (7aS)-2-[2-[5-amino-1-[4-(2-fluorophenoxy)-2-methylphenyl]pyrazole-4-carbonyl]-5-(2,2-difluoroethoxy)-1H-indol-6-yl]-5,6,7,7a-tetrahydropyrrolo[1,2-c]imidazole-1,3-dione]
0.00033 | 0.023 | 0.046 | Cc1cc(Oc2ccccc2F)ccc1-n1ncc(C(=O)c2cc3cc(OCC(F)F)c(N4C(=O)[C@@H]5C[C@H](NC(=O)OCC6c7ccccc7-c7ccccc76)CN5C4=O)cc3[nH]2)c1N [Example 5-1-253, 9H-fluoren-9-ylmethyl N-[(6S,7aS)-2-[2-[5-amino-1-[4-(2-fluorophenoxy)-2-methylphenyl]pyrazole-4-carbonyl]-5-(2,2-difluoroethoxy)-1H-indol-6-yl]-1,3-dioxo-5,6,7,7a-tetrahydropyrrolo[1,2-c]imidazol-6-yl] carbamate]
0.0011 | 0.0089 | 0.0045 | Cc1cc(Oc2ccccc2F)ccc1-n1ncc(C(=O)c2cc3cc(OCC(F)F)c(N4C(=O)[C@@H]5C[C@H](NS(=O)(=O)CCCF)CN5C4=O)cc3[nH]2)c1N [Example 5-1-255, N-[(6S,7aS)-2-[2-[5-amino-1-[4-(2-fluorophenoxy)-2-methylphenyl]pyrazole-4-carbonyl]-5-(2,2-difluoroethoxy)-1H-indol-6-yl]-1,3-dioxo-5,6,7,7a-tetrahydropyrrolo[1,2-c]imidazol-6-yl]-3-fluoropropane-1-sulfonamide]
0.018 | 2.9 | 0.72 | Cc1cc(-n2ncc(C(=O)c3cc4cc(OCC(F)F)c(C5CCOCC5)cc4[nH]3)c2N)ccc1Oc1ccccc1F [Example 5-1-258, [5-amino-1-[4-(2-fluorophenoxy)-3-methylphenyl]pyrazol-4-yl]-[5-(2,2-difluoroethoxy)-6-(oxan-4-yl)-1H-indol-2-yl] methanone]

Reference: patent US10479780B2, “Aminopyrazole derivatives” (Chugai Seiyaku Kabushiki Kaisha, priority 2015, dated 2019)
